A word on the Ki: it is a dissociation constant, usually derived from enzyme kinetics or from competition with a known ligand.

Consider 31 molecules from patent publication US11014911B2, “CDK2 inhibitors” (Pfizer Inc., priority 2019, dated 2021).

In this assay the target is CDK2/Cyclin E1 full length (Homo sapiens (Human), UniProt P24941). Put plainly: CDK2/Cyclin E1 full length mobility shift assay. The format is biochemical.
Regarding `Cc1nc(CC(=O)Nc2cc([C@H]3CC[C@@H](OC(=O)NC(C)(C)C)C3)[nH]n2)cs1` [Example 304, (1R,3S)-3-(3-{[(2-methyl-1,3-thiazol-4-yl)acetyl]amino}-1H-pyrazol-5-yl)cyclopentyl tert-butylcarbamate], the Ki was 1.41 nM. Turning to `Cc1nnc(CC(=O)Nc2cc([C@H]3CC[C@@H](OC(=O)NC(C)(C)C)C3)[nH]n2)s1` [Example 305, (1R,3S)-3-(3-{[(5-methyl-1,3,4-thiadiazol-2-yl)acetyl]amino}-1H-pyrazol-5-yl)cyclopentyl tert-butylcarbamate], the Ki came to 0.52 nM.

For the molecule `CC(C)(C)NC(=O)O[C@@H]1CC[C@H](c2cc(NC(=O)Cc3coc(C4CC4)n3)n[nH]2)C1` [Example 306, (1R,3S)-3-(3-{[(2-cyclopropyl-1,3-oxazol-4-yl)acetyl]amino}-1H-pyrazol-5-yl)cyclopentyl tert-butylcarbamate], the inhibition constant Ki worked out at 1.09 nM. For the molecule `COc1ncccc1CC(=O)Nc1cc([C@H]2CC[C@@H](OC(=O)NC(C)(C)C)C2)[nH]n1` [Example 307, (1R,3S)-3-(3-{[(2-methoxypyridin-3-yl)acetyl]amino}-1H-pyrazol-5-yl)cyclopentyl tert-butylcarbamate], the Ki was determined as 0.73 nM. As for `COc1nn(C)cc1CC(=O)Nc1cc([C@H]2CC[C@@H](OC(=O)NC(C)(C)C)C2)[nH]n1` [Example 309, (1R,3S)-3-(3-{[(3-methoxy-1-methyl-1H-pyrazol-4-yl)acetyl]amino}-1H-pyrazol-5-yl)cyclopentyl tert-butylcarbamate], the inhibition constant Ki turned out to be 1.55 nM. On to `CC(C)(C)NC(=O)O[C@@H]1CC[C@H](c2cc(NC(=O)Cc3ccc(Cl)cn3)n[nH]2)C1` [Example 310, (1R,3S)-3-(3-{[(5-chloropyridin-2-yl)acetyl]amino}-1H-pyrazol-5-yl)cyclopentyl tert-butylcarbamate], for which the Ki amounted to 0.69 nM.

For `COc1cnc(CC(=O)Nc2cc([C@H]3CC[C@@H](OC(=O)NC(C)(C)C)C3)[nH]n2)s1` [Example 311, (1R,3S)-3-(3-{[(5-methoxy-1,3-thiazol-2-yl)acetyl]amino}-1H-pyrazol-5-yl)cyclopentyl tert-butylcarbamate], the inhibitory constant (Ki) was 0.36 nM. Take `Cc1nc(CC(=O)Nc2cc([C@H]3CC[C@@H](OC(=O)NC(C)(C)C)C3)[nH]n2)ccc1Cl` [Example 312, (1R,3S)-3-(3-{[(5-chloro-6-methylpyridin-2-yl)acetyl]amino}-1H-pyrazol-5-yl)cyclopentyl tert-butylcarbamate]: the inhibitory constant (Ki) was 0.43 nM. `Cc1ccnc(CC(=O)Nc2cc([C@H]3CC[C@@H](OC(=O)NC(C)(C)C)C3)[nH]n2)c1Cl` [Example 313, (1R,3S)-3-(3-{[(3-chloro-4-methylpyridin-2-yl)acetyl]amino}-1H-pyrazol-5-yl)cyclopentyl tert-butylcarbamate]: the Ki worked out at 0.63 nM. On to `CC(C)(C)NC(=O)O[C@@H]1CC[C@H](c2cc(NC(=O)Cc3cc(C(F)(F)F)ccn3)n[nH]2)C1` [Example 316, (1R,3S)-3-[3-({[4-(trifluoromethyl)pyridin-2-yl]acetyl}amino)-1H-pyrazol-5-yl]cyclopentyl tert-butylcarbamate], for which the Ki turned out to be 1.3 nM. Take `CC(C)(C)NC(=O)O[C@@H]1CC[C@H](c2cc(NC(=O)Cc3cnn(CC(F)(F)F)n3)n[nH]2)C1` [Example 318, (1R,3S)-3-[3-({[2-(2,2,2-trifluoroethyl)-2H-1,2,3-triazol-4-yl]acetyl}amino)-1H-pyrazol-5-yl]cyclopentyl tert-butylcarbamate]: the Ki came out at 0.53 nM. In the case of `CC[C@H](C)NC(=O)O[C@@H]1CC[C@H](c2cc(NC(=O)c3cnn(C)c3)n[nH]2)C1` [Example 320, (1R,3S)-3-(3-{[(1-methyl-1H-pyrazol-4-yl)carbonyl]amino}-1H-pyrazol-5-yl)cyclopentyl (2S)-butan-2-ylcarbamate], the inhibitory constant (Ki) came out at 2.95 nM.

Consider `CC[C@H](C)NC(=O)O[C@@H]1CC[C@H](c2cc(NC(=O)Cc3ccn(C)n3)n[nH]2)C1` [Example 328, (1R,3S)-3-(3-{[(1-methyl-1H-pyrazol-3-yl)acetyl]amino}-1H-pyrazol-5-yl)cyclopentyl (2S)-butan-2-ylcarbamate], for which the Ki is 1.77 nM. In the case of `CC[C@H](C)NC(=O)O[C@@H]1CC[C@H](c2cc(NC(=O)Cc3cn(C)nn3)n[nH]2)C1` [Example 331, (1R,3S)-3-(3-{[(1-methyl-1H-1,2,3-triazol-4-yl)acetyl]amino}-1H-pyrazol-5-yl)cyclopentyl (2S)-butan-2-ylcarbamate], the Ki was 1.49 nM.

With `CC[C@H](C)NC(=O)O[C@@H]1CC[C@H](c2cc(NC(=O)Cc3nnc(C)o3)n[nH]2)C1` [Example 334, (1R,3S)-3-(3-{[(5-methyl-1,3,4-oxadiazol-2-yl)acetyl]amino}-1H-pyrazol-5-yl)cyclopentyl (2S)-butan-2-ylcarbamate], the inhibition constant (Ki) came out at 1.6 nM. For `CC[C@H](C)NC(=O)O[C@@H]1CC[C@H](c2cc(NC(=O)Cc3cnn(CC)n3)n[nH]2)C1` [Example 339, (1R,3S)-3-(3-{[(2-ethyl-2H-1,2,3-triazol-4-yl)acetyl]amino}-1H-pyrazol-5-yl)cyclopentyl (2S)-butan-2-ylcarbamate], the Ki turned out to be 0.66 nM.

In the case of `CC[C@H](C)NC(=O)O[C@@H]1CC[C@H](c2cc(NC(=O)Cc3c(C)noc3C)n[nH]2)C1` [Example 340, (1R,3S)-3-(3-{[(3,5-dimethyl-1,2-oxazol-4-yl)acetyl]amino}-1H-pyrazol-5-yl)cyclopentyl (2S)-butan-2-ylcarbamate], the Ki is 2.24 nM. Consider `CC[C@H](C)NC(=O)O[C@@H]1CC[C@H](c2cc(NC(=O)Cc3ncc(C)s3)n[nH]2)C1` [Example 341, (1R,3S)-3-(3-{[(5-methyl-1,3-thiazol-2-yl)acetyl]amino}-1H-pyrazol-5-yl)cyclopentyl (2S)-butan-2-ylcarbamate], for which the inhibition constant (Ki) came out at 0.64 nM. Next, `CC[C@H](C)NC(=O)O[C@@H]1CC[C@H](c2cc(NC(=O)Cc3nnc(C)s3)n[nH]2)C1` [Example 344, (1R,3S)-3-(3-{[(5-methyl-1,3,4-thiadiazol-2-yl)acetyl]amino}-1H-pyrazol-5-yl)cyclopentyl (2S)-butan-2-ylcarbamate]: 0.58 nM. With `CC[C@H](C)NC(=O)O[C@@H]1CC[C@H](c2cc(NC(=O)Cc3cccnc3OC)n[nH]2)C1` [Example 345, (1R,3S)-3-(3-{[(2-methoxypyridin-3-yl)acetyl]amino}-1H-pyrazol-5-yl)cyclopentyl (2S)-butan-2-ylcarbamate], the inhibition constant Ki was determined as 2.66 nM.

Turning to `CC[C@H](C)NC(=O)O[C@@H]1CC[C@H](c2cc(NC(=O)Cc3cnc(OC)cn3)n[nH]2)C1` [Example 347, (1R,3S)-3-(3-{[(5-methoxypyrazin-2-yl)acetyl]amino}-1H-pyrazol-5-yl)cyclopentyl (2S)-butan-2-ylcarbamate], the Ki amounted to 0.37 nM. In the case of `CC[C@H](C)NC(=O)O[C@@H]1CC[C@H](c2cc(NC(=O)Cc3cn(C(C)C)nn3)n[nH]2)C1` [Example 350, (1R,3S)-3-[3-({[1-(propan-2-yl)-1H-1,2,3-triazol-4-yl]acetyl}amino)-1H-pyrazol-5-yl]cyclopentyl (2S)-butan-2-ylcarbamate], the inhibition constant (Ki) stood at 3.45 nM. As to `CC[C@H](C)NC(=O)O[C@@H]1CC[C@H](c2cc(NC(=O)Cc3cn(C)nc3OC)n[nH]2)C1` [Example 351, (1R,3S)-3-(3-{[(3-methoxy-1-methyl-1H-pyrazol-4-yl)acetyl]amino}-1H-pyrazol-5-yl)cyclopentyl (2S)-butan-2-ylcarbamate], the inhibition constant Ki amounted to 2.77 nM. As for `CC[C@H](C)NC(=O)O[C@@H]1CC[C@H](c2cc(NC(=O)Cc3cn4cccnc4n3)n[nH]2)C1` [Example 354, (1R,3S)-3-{3-[(imidazo[1,2-a]pyrimidin-2-ylacetyl)amino]-1H-pyrazol-5-yl}cyclopentyl (2S)-butan-2-ylcarbamate], the inhibition constant (Ki) worked out at 3.74 nM.

As to `CC[C@H](C)NC(=O)O[C@@H]1CC[C@H](c2cc(NC(=O)Cc3cn4ccc(C)nc4n3)n[nH]2)C1` [Example 357, (1R,3S)-3-(3-{[(7-methylimidazo[1,2-a]pyrimidin-2-yl)acetyl]amino}-1H-pyrazol-5-yl)cyclopentyl (2S)-butan-2-ylcarbamate], the Ki is 4.08 nM. `CC[C@H](C)NC(=O)O[C@@H]1CC[C@H](c2cc(NC(=O)Cc3cc(OC)ncc3OC)n[nH]2)C1` [Example 358, (1R,3S)-3-(3-{[(2,5-dimethoxypyridin-4-yl)acetyl]amino}-1H-pyrazol-5-yl)cyclopentyl (2S)-butan-2-ylcarbamate]: the inhibition constant (Ki) stood at 1.65 nM. Next, `CC[C@H](C)NC(=O)O[C@@H]1CC[C@H](c2cc(NC(=O)Cc3ccc(C(F)(F)F)cn3)n[nH]2)C1` [Example 360, (1R,3S)-3-[3-({[5-(trifluoromethyl)pyridin-2-yl]acetyl}amino)-1H-pyrazol-5-yl]cyclopentyl (2S)-butan-2-ylcarbamate]: 1.46 nM.

Take `CC[C@H](C)NC(=O)O[C@@H]1CC[C@H](c2cc(NC(=O)Cc3cncc(C(F)(F)F)n3)n[nH]2)C1` [Example 362, (1R,3S)-3-[3-({[6-(trifluoromethyl)pyrazin-2-yl]acetyl}amino)-1H-pyrazol-5-yl]cyclopentyl (2S)-butan-2-ylcarbamate]: the inhibitory constant (Ki) turned out to be 0.84 nM. As to `CC[C@H](C)NC(=O)O[C@@H]1CC[C@H](c2cc(NC(=O)Cc3cnn(C)c3C(F)(F)F)n[nH]2)C1` [Example 365, (1R,3S)-3-[3-({[1-methyl-5-(trifluoromethyl)-1H-pyrazol-4-yl]acetyl}amino)-1H-pyrazol-5-yl]cyclopentyl (2S)-butan-2-ylcarbamate], the inhibition constant (Ki) turned out to be 2.08 nM. `CC[C@H](C)NC(=O)O[C@@H]1CC[C@H](c2cc(NC(=O)Cc3cn(CC(F)(F)F)nn3)n[nH]2)C1` [Example 366, (1R,3S)-3-[3-({[1-(2,2,2-trifluoroethyl)-1H-1,2,3-triazol-4-yl]acetyl}amino)-1H-pyrazol-5-yl]cyclopentyl (2S)-butan-2-ylcarbamate]: the inhibition constant Ki was 1.79 nM. On to `CC[C@H](C)NC(=O)O[C@@H]1CC[C@H](c2cc(NC(=O)Cc3c(S(C)(=O)=O)c4ccccc4n3C)n[nH]2)C1` [Example 377, (1R,3S)-3-[3-({[1-methyl-3-(methylsulfonyl)-1H-indol-2-yl]acetyl}amino)-1H-pyrazol-5-yl]cyclopentyl (2S)-butan-2-ylcarbamate], for which the inhibitory constant (Ki) was 1.14 nM.
